# Square brackets hold non-standard residues; d marks the D form. Ends that are not written are not given here. Peptide text beside a SMILES is read from it.
# Columns and labels:
# [1] = molecular target: T1, myotoxin II (Bothrops asper, UniProt P24605); assay type: binding
# [2] = molecular target: T1, myotoxin II
# [3] = Fluorescence polarization test for self-assembly or aggregation; assay type: physicochemical; details: absence of Myotoxin-II
# T1 sequence (P24605 17-137 limits assumed): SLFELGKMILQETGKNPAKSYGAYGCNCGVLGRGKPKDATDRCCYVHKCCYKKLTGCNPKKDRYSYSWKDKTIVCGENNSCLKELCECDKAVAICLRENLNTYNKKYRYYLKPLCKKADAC
Compound,"ELISA signal at different dilutions, myotoxin II coated versus uncoated wells [1]","ELISA signal, myotoxin II coated wells versus uncoated control [1]",Cytotoxicity of Myotoxin II in presence of peptide (LDH release) [2],Signal intensity and signal to noise ratio in cross reactivity ELISA [1],Self-assembling or aggregating ability (artificial increase of FP signal of TAMRA-probe) [3]
QSVTMGPGLITHSPIHTQSK [Clone 1.2],low difference for the dilutions of 1/100 and 1/1000,greatest difference between toxin coated wells and control,–,–,–
CC(C)[C@H](NC(=O)[C@H](Cc1c[nH]c2ccccc12)NC(=O)[C@H](Cc1c[nH]cn1)NC(=O)[C@@H](N)CC(=O)O)C(=O)N[C@@H](Cc1c[nH]c2ccccc12)C(=O)NCC(=O)N[C@@H](Cc1c[nH]c2ccccc12)C(=O)N[C@@H](CC(N)=O)C(=O)N[C@@H](Cc1ccc(O)cc1)C(=O)N[C@@H](CCC(N)=O)C(=O)N[C@@H](Cc1ccc(O)cc1)C(=O)N[C@@H](CCC(N)=O)C(=O)N1CCC[C@H]1C(=O)N[C@@H](CCC(N)=O)C(=O)N[C@@H](CCC(=O)O)C(=O)N[C@@H](Cc1c[nH]c2ccccc12)C(=O)N[C@@H](Cc1c[nH]cn1)C(=O)N[C@H](C(=O)N[C@@H](CCC(=O)O)C(=O)N[C@@H](CO)C(=O)O)[C@@H](C)O [Clone 1.9] (H-DHWVWGWNYQYQPQEWHTES-OH),–,–,4%,–,–
DYDRIPDIPMLGGGG [Clone 1.4],low difference for the dilutions of 1/100 and 1/1000,greatest difference between toxin coated wells and control,–,–,–
NGYWSSQQYMQQAPMPWRIP [Clone 4.10],highest signals and also the highest signal to noise ratio in all of the dilutions,greatest difference between toxin coated wells and control,–,highest signal intensity and the best signal to noise ratio,–
Y11D-Y (DHWVWGWNYQ[dY]QPQEWHTES) [Clone Y11D-Y],–,–,–,–,did not artificially increase the FP signal
SWEPYANPTRYKFHDW [Clone 1.8],low difference for the dilutions of 1/100 and 1/1000,greatest difference between toxin coated wells and control,–,–,–
VNRMLELKIMDYGGG [Clone 1.1],low difference for the dilutions of 1/100 and 1/1000,greatest difference between toxin coated wells and control,–,–,–

# From US11352393B2, “Myotoxin-neutralizing peptides” (priority 2018, dated 2022)
